Data reported in patent US6699676B1, “Uses of ouabain and ouabain-like molecules in apoptosis related pathologies” (Corporation du Centre de Recherche du Centre, Hospitalier …, priority 1999, dated 2004).

Tests used:
[1] = test system: caspase-3; format: biochemical, rat; settings: lysates of VSMC-E1A after 6 hours serum withdrawal, 100 mM added, data not shown
Procedure: (§1) To examine this hypothesis, we measured the activity of caspases in lysates of VSMC-E1A subjected to 6 hours serum withdrawal has been measured.
(§2) Caspase activity. VSMC-E1A seeded in 20 cm^2 flasks and treated as indicated in FIG. 5 were scratched, transferred to centrifuge tubes, washed twice with PBS and lysed in 0.5 ml of buffer A contaming 50 mM tris-HCl (pH 7.4), 5 mM MgCl2, 1 mM EGTA and 0.1% CHAPS. Then, 50-100 μl of cell lysate was mixed with 600 μl of buffer A containing 1 mM dithiothreitol, 40 μM YVAD-AMC or DEVD-AMC with or without 1 μM of caspase-1 and capspase-3 inhibitors (Ac-YVAD-CHO and Ac-DEVD-CHO, respectively), incubated for 2 hours at 37° C. and diluted 15-fold with 80 mM glycine-NaOH buffer (pH 10). Fluorescence of the samples was measured at ex=365 run and em=465 run and calibrated with AMC in the range of 10 to 100 nM. To measure caspase activity in control and ouabain-treated Jurkat cells, 5 ml of suspension containing ˜2×10^7 cells was transferred onto ice and sedimented. The pellet of cells was washed and treated with 0.3 ml of medium A in the same way as VSMC. Protein content was estimated by Bradford methods.

[2] = biological target: T1, caspase-1 (Rattus norvegicus, UniProt P43527); format: biochemical; settings: lysates of VSMC-E1A after 6 hours serum withdrawal, 100 mM added, data not shown
T1 construct: we measured the activity of caspases in lysates of VSMC-E1A subjected to 6 hours serum withdrawal; endogenous in cells; host or cells: VSMC-E1A (rat aortic vascular smooth muscle cells transfected with E1A adenoviral protein), cell lysate
T1 sequence (P43527 119-402): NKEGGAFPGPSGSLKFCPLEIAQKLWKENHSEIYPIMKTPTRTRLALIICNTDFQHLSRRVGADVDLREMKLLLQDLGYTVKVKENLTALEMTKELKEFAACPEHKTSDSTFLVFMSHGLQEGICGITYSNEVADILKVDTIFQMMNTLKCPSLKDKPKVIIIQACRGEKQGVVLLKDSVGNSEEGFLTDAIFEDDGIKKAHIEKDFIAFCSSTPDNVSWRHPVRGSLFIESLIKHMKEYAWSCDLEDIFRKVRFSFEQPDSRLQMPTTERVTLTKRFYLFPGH
Procedure: as §1, §2

[3] = test system: VSMC; settings: moderate elevation of [Ca2+]i, reference (37); cited from earlier work
[4] = test system: Jurkat cells; assay: Chromatin cleavage assay in Jurkat cells; format: cell-based, human; settings: for Chromatin fragments (%): Jurkat cells without ouabain, +Fas-L 100 ng/ml, 7 hours
Procedure: FIG. 4. Effect of ouabain on chromatin cleavage in Jurkat cells. (A) Kinetics of accumulation of chromatin fragments in control (curves 1, 3) and ouabain-treated (curves 2, 4) cells in the absence (curves 1, 2) or presence (curves 3, 4) of 100 ng/ml of anti-human Fas (mouse monoclonal IgM, Upstate Biotechnology, Lake Placid, N.Y.); (B) Content of chromatin fragments in Jurkat cells subjected to 3 hours of incubation with or without 1 mM ouabain, 0.25 μM staurosporine and 350 mM mannitol. In both experiments, ouabain was added 2 hours before triggering of apoptosis. Mean values±S.E. obtained in experiments performed in triplicate are given.
To estimate chromatin cleavage, cells were incubated for 2 hours in the presence of 10% calf serum in the control solution (DMEM, [Na^+]=137 mM; [K^+]=5 mM—line 1) or under equimolar substitution of NaCl with KCl ([Na^+]=14 mM; [K^+]=128 mM—line 2) with or without 1 mM ouabain and then for an additional 7 hours at the same media with or without 100 ng/ml Fas ligand (Fas-L). Intracellular Na^+ and K^+ content was measured as steady-state distribution of isotopes after 24 hours preincubation of cells in control Na^+-enriched solution containing 0.5 μCi/ml ^86Rb or 2 μCi/ml ^22Na, and an additional 6 hours incubation in Na^+—(line 1) or K^+—(line 2) enriched medium containing 10% calf serum, isotopes with the same specific activity with or without 1 mM ouabain. For more details see Experimental Procedures. Mean values±S.E. obtained in experiments performed in triplicate are given. ★, #p<0.01 and 0.001 compared to ouabain-untreated cells.
Cells. VSMC were obtained by explant methods from aortas of 10- to 13-week-old male rats as described previously (17), cultured in DMEM with 10% calf serum, 100 U/ml penicillin, 100 µg/ml streptomycin and used between 10 to 16 passages. Cells transfected with c-myc (VSMC-MYC) and E1A-adenovirus (VSMC-E1A) were obtained in accordance with a previously-described protocol (18,19) and were cultured in the same medium with the addition of 500 µg/ml genticin. Jurkat cells were obtained from the American Type Culture Collection and cultured in RPMI 1640 medium supplied with 10% calf serum, antibiotics, sodium pyruvate, glutamate and β-mercaptoethanol.
Chromatin cleavage assay. Chromatin cleavage in VSMC was estimated by a technique described previously in detail (10). Briefly, VSMC grown in 24-well dishes were labeled for 24 hours in serum-supplied DMEM with [^3H]-thymidine (1 μCi/ml), washed with 2×2 ml of DMEM and incubated in serum-supplied DMEM. In 48 hr, the cells were pretreated with ouabain or K^+-depleted medium as indicated in FIG. 2 and Table 3, washed twice with serum-containing medium and incubated with 0.5 ml of medium with or without ouabain and containing different inducers of apoptosis. To measure the content of chromatin fragments, the cells were transferred on ice and 1 ml of ice-cold lysed buffer (10 mM EDTA, 10 mM tris-HCl, 0.5% triton X100 (pH 8.0)) was added. After 15 min, the cell lysate was transferred to Ependorf tubes, sedimented (12,000 rpm, 10 mm), and 1 ml of supernatant was transferred for the measurement of radioactivity (A1t). The remaining radioactivity from pellets and wells was extracted with 0.5 ml of 1% SDS/4 mM EDTA mixture, combined and counted (A2). Chromatin cleavage was quantified as the content of chromatin fragments normalized by total content of [^3H]-labeled DNA in accordance with the equation [1.5×(A1t−A1o)/(A2+A1t−1.5A1o)]×100% where A1o is the value of A1t before induction of apoptosis. To measure chromatin fragmentation in [^3H]-thymidine-labeled Jurkat cells, they were resuspended at a density of 10^6 cells/ml in medium containing 10% calf serum and the additions indicated in FIG. 4 and Table 4. At the time intervals shown in FIG. 4, 100 μl of cell suspension was mixed with 100 μl of PBS contairung 0.5% triton X100, and the content of chromatin fragments was measured as described previously in detail (20).

[5] = test system: caspase-3; assay: Caspase-3 activity in treated Jurkat cells; format: cell-based, human; settings: 3 hours, Fas ligand 100 ng/ml, staurosporine 0.25 μM, mannitol 350 mM
Procedure: FIG. 5. Effect of ouabain on caspase-3 activity in VSMC-E1A (A) and Jurkat cells (B). VSMC-E1A and Jurkat cells were pretreated with 1 mM ouabain for 1 and 2 hours, respectively, and the additions indicated below the bars were delivered in media with 10% calf serum and with the baseline (137/5) or inverse (14/128) [Na^+]o/[K^+]o ratio for 6 (VSMC-E1A) or 3 hours (Jurkat cells). In experiments with VSMC-E1A, calf serum (CS) was omitted where indicated (−). Abbreviations: staur.—staurosporine (0.25 μM), ok.ac.—okadaic acid (1 μM), mann.—mannitol (350 mM); Fas-L—Fas ligand (100 ng/ml). Mean values±S.E. obtained in experiments performed in quadruplicate (A) or triplicate (B) are given. ★p<0.001 compared to ouabain-untreated cells.
as §2

Molecule	decrease of caspase-3 activity [1]	decrease of caspase-1 activity [2]	effect on VSMC apoptosis [3]	other results
[Cl-].[K+] [KCl]	10-20%	10-20%		
[Cl-].[Na+] [NaCl]	the same level of inhibition	the same level of inhibition		
C[N+](C)(C)CCO.[Cl-] [choline chloride]	the same level of inhibition	the same level of inhibition		
C[C@H](CCC(=O)O)C[C@H](C)C[C@H](C)C(=O)/C=C(\O)[C@H](C)C[C@H](C)C/C=C/[C@@H](C)[C@@H](O)[C@@H](C)[C@@H](O)C[C@@H]1CC[C@@](C)([C@H]2CC[C@@](C)([C@@H](C)O)O2)O1 [ionomycin]			did not observe any effect	
C/C=C(/C)C(=O)O[C@H]1C(C)=C2[C@H]([C@@H]1OC(=O)CCCCCCC)[C@@](C)(OC(C)=O)C[C@H](OC(=O)CCC)[C@@]1(O)[C@H]2OC(=O)[C@@]1(C)O [thapsigargin]			did not observe any effect	
Fas ligand				Chromatin fragments (%) ([4]; medium [Na+]o=14, [K+]o=128 mM): 20.0±2.2%; Chromatin fragments (%) ([4]; medium [Na+]o=14, [K+]o=128 mM, listed as Fas-L): 20.2%; Chromatin fragments (%) ([4]; medium [Na+]o=137, [K+]o=5 mM): 28.5±3.3%; Chromatin fragments (%) ([4]; medium [Na+]o=137, [K+]o=5 mM, listed as Fas-L): 28.5%; increase of the content of chromatin fragments ([4]; Jurkat cells, 1.5 hour incubation with Fas ligand 100 ng/ml): 10 fold; increment of the content of chromatin fragments triggered by Fas ligand ([4]; control Jurkat cells, 7-hr incubation): 23.6±3.9%; increase of caspase-3 activity [5]: ~30 fold
